Assay [1] deals with Mus musculus. Kind of assay: […] cytotoxicity against advanced stage pancreatic ductal adenocarcinoma 03 after the administration of 5 injections (iv) at a dose of 450 (mg/kg). It is filed as functional.
Assay [2] relates to Mus musculus. Kind of assay: […] cytotoxicity against advanced stage pancreatic ductal adenocarcinoma 03 after the administration of 5 injections (iv) at a dose of 450 (mg/kg) in 5 Mice. It counts as functional.
Assay [3] concerns Mus musculus. Kind of assay: […] cytotoxicity against advanced stage pancreatic ductal adenocarcinoma 03 after the administration of 5 injections (iv) at a dose of 450 (mg/kg) in 5 mice. It is filed as functional.
Assay [4] has as its system Mus musculus. Kind of assay: […] cytotoxicity against resistant mammary adenocarcinoma-17/adr(M17/adr) after the administration of 7 injections (iv) at a dose of 462 (mg/kg);Activity value is none. It counts as functional, organism-based.
Assay [5] is described as follows: […] cytotoxicity against resistant mammary adenocarcinoma-17/adr(M17/adr) after the administration of 7 injections (iv) at a dose of 462 (mg/kg). It is filed as functional, Mus musculus.
A short description of assay [6]: In vitro cytotoxicity against resistant mammary adenocarcinoma-17/adr(M17/adr) after the administration of 7 injections (iv) at a dose of 462 (mg/kg) in 4 Mice. It is filed as functional, Mus musculus.
A short description of assay [7]: In vitro cytotoxicity against resistant mammary adenocarcinoma-17/adr(M17/adr) after the administration of 7 injections (iv) at a dose of 370 (mg/kg). It counts as functional, Mus musculus.
Assay [8] can be described thus: In vitro cytotoxicity against resistant mammary adenocarcinoma-17/adr(M17/adr) after the administration of 7 injections (iv) at a dose of 370 (mg/kg) in 5 Mice. It is filed as functional, Mus musculus.
Assay [9] is described as follows: […] cytotoxicity against resistant mammary adenocarcinoma-17/adr(M17/adr) after the administration (iv) of 13 injections at a dose of 364(mg/kg) in 5 Mice. It is filed as functional, Mus musculus.
A short description of assay [10]: […] cytotoxicity against resistant mammary adenocarcinoma-17/adr(M17/adr) after the administration (iv) of 13 injections at a dose of 364(mg/kg). It counts as functional, Mus musculus.
Assay [11] can be described thus: In vitro cytotoxicity against resistant mammary adenocarcinoma-17/adr(M17/adr) after the administration of 7 injections (iv) at a dose of 324(mg/kg). It is filed as functional, Mus musculus.
Assay [12] in a line: In vitro cytotoxicity against resistant mammary adenocarcinoma-17/adr(M17/adr) after the administration of 7 injections (iv) at a dose of 324(mg/kg) in 5 Mice. It is filed as functional, Mus musculus.
A short description of assay [13]: In vitro cytotoxicity against resistant mammary adenocarcinoma-17/adr(M17/adr) after the administration of 6 injections (iv) at a dose of 450 (mg/kg). It is filed as functional, Mus musculus.
Assay [14] is described as follows: […] cytotoxicity against resistant mammary adenocarcinoma-17/adr(M17/adr) after the administration of 6 injections (iv) at a dose of 450 (mg/kg) in 5 Mice. It is filed as functional, Mus musculus.
Assay [15] concerns Mus musculus. The experiment in a line: […] cytotoxicity against advanced stage pancreatic ductal adenocarcinoma 03 after the administration of 6 injections (iv) at a dose of 480 (mg/kg) in 4 Mice. It is filed as functional.
Assay [16] deals with Mus musculus. Kind of assay: […] cytotoxicity against advanced stage pancreatic ductal adenocarcinoma 03 after the administration of 6 injections (iv) at a dose of 480 (mg/kg). It is filed as functional.
The test system of assay [17] is Mus musculus. The experiment in a line: […] cytotoxicity against advanced stage pancreatic ductal adenocarcinoma 03 after the administration of 7 injections (iv) at a dose of 560(mg/kg) in 7 Mice. It counts as functional.
The subject of assay [18] is Mus musculus. The experiment in a line: […] cytotoxicity against advanced stage pancreatic ductal adenocarcinoma 03 after the administration of 7 injections (iv) at a dose of 560(mg/kg). It is filed as functional.
The nature of assay [19]: In vitro cytotoxicity against resistant mammary adenocarcinoma-17/adr(M17/adr) after the administration of 6 injections (iv) at a dose of 300 mg/kg in 5 Mice. It counts as functional, Mus musculus.
Assay [20] is described as follows: In vitro cytotoxicity against resistant mammary adenocarcinoma-17/adr(M17/adr) after the administration of 6 injections (iv) at a dose of 300 mg/kg. It counts as functional, Mus musculus.
In assay [21] the test system is Mus musculus. Kind of assay: […] cytotoxicity against advanced stage pancreatic ductal adenocarcinoma 03 after the administration of 7 injections (iv) at a dose of 336(mg/kg). It counts as functional.
The subject of assay [22] is Mus musculus. The experiment in a line: […] cytotoxicity against advanced stage pancreatic ductal adenocarcinoma 03 after the administration of 7 injections (iv) at a dose of 336(mg/kg) in 5 Mice. It counts as functional.
The nature of assay [23]: In vitro cytotoxicity against resistant mammary adenocarcinoma-17/adr(M17/adr) after the administration of 7 injections (iv) at a dose of 455 (mg/kg) in 3 Mice. It counts as functional, Mus musculus.
The nature of assay [24]: In vitro cytotoxicity against resistant mammary adenocarcinoma-17/adr(M17/adr) after the administration of 7 injections (iv) at a dose of 455 (mg/kg). It is filed as functional, Mus musculus.
The subject of assay [25] is Mus musculus. Kind of assay: […] cytotoxicity against resistant mammary adenocarcinoma-17/adr(M17/adr) after the administration of 7 injections (iv) at a dose of 455 (mg/kg); Activity value is none. It is filed as functional, organism-based.
Assay [26] in a line: In vitro cytotoxicity against resistant mammary adenocarcinoma-17/adr(M17/adr) after the administration of 6 injections (iv) at a dose of 352(mg/kg) in 5 Mice. It is filed as functional, Mus musculus.
Assay [27] in a line: In vitro cytotoxicity against resistant mammary adenocarcinoma-17/adr(M17/adr) after the administration of 6 injections (iv) at a dose of 352(mg/kg). It counts as functional, Mus musculus.

This note sets out measurements from ChEMBL document CHEMBL1135507, “II. Synthesis and biological evaluation of some bioisosteres and congeners of the antitumor agent, 2-(4-[(7-chloro-2-quinoxalinyl)oxy]phenoxy)propionic acid (XK469)” (2002).

SMILES strings stand for the structures. The source made the active and inactive calls. The calls are words filed in the database; no cut-off is given here. A value given as a limit tells only on which side of the number the result lay.

In the case of `COc1ccc2ccc(Oc3ccc(OC(C)C(=O)O)cc3)nc2c1` (racemic), in the assay on Mus musculus [1], the Activity rating was 1.2; the “Body weight loss at nadir” value is on record as -2%; the “Log tumor cell kill” value came to 0.8; the T/C (commonly the result in the treated group divided by that in the control group, in per cent) was determined as 45%. In the assay on Mus musculus [2], this compound showed a Drug deaths of 0. Moreover, the Cures in the assay with Mus musculus [3] came to 0.
As to `CC(Oc1ccc(Oc2nc3cc(Cl)ccc3o2)cc1)C(=O)O` (racemic), the “Log tumor cell kill” value in the assay on Mus musculus [4] was “inactive”. Moreover, in [5], the Activity rating was under 0.7, the “Body weight loss at nadir” value is recorded as -2.3% and the T/C is over 100%. In assay [6], the Cures was determined as 0 and the Drug deaths is 0.
On to `CC(Oc1ccc(Oc2ccc3ccc(I)cc3n2)cc1)C(=O)O` (racemic), for which, in assay [7], the Activity rating stood at 1.9, the “Body weight loss at nadir” value was -4%, the “Log tumor cell kill” value amounted to 2.1 and the T/C is 2%. In addition, in assay [8], the Cures is 0 and the Drug deaths is listed as 0.
In [9], `CC(Oc1ccc(Oc2cnc3ccc(Cl)cc3n2)cc1)C(=O)O` (racemic) registered a Cures of 0 and a Drug deaths of 0. Moreover, in [10], the Activity rating is reported as over 2.8, the “Body weight loss at nadir” value was 0%, the “Log tumor cell kill” value amounted to 2.82 and the T/C amounted to 10.3%.
In the case of `CC(Oc1ccc(Oc2ccc3ccc(F)cc3n2)cc1)C(=O)O` (racemic), in assay [11], the Activity rating was 1.9, the “Body weight loss at nadir” value is -1.6%, the “Log tumor cell kill” value was determined as 1.5 and the T/C turned out to be 14%. In assay [12], this compound showed a Cures of 0 and a Drug deaths of 0.
On to `COc1ccc2ccc(Oc3ccc(OC(C)C(=O)O)cc3)nc2c1` (stereo not drawn), for which, in assay [13], the Activity rating is on record as over 2.8, the “Body weight loss at nadir” value is -5%, the “Log tumor cell kill” value is on record as 3 and the T/C was found to be 0%. In assay [14], this compound showed a Cures of 0 and a Drug deaths of 0.
In the assay with Mus musculus [15], `CC(Oc1ccc(Oc2ccc3ccc(Br)cc3n2)cc1)C(=O)O` (stereo not drawn) displayed a Cures of 0 and a Drug deaths of 0. Besides, in the assay on Mus musculus [16], the Activity rating is given as over 2.8, the “Body weight loss at nadir” value turned out to be 5.9%, the “Log tumor cell kill” value amounted to 3.1 and the T/C was 2.8%.
In the assay with Mus musculus [17], `CC(Oc1ccc(Oc2ccc3ccc(Cl)cc3n2)cc1)C(=O)O` (stereo not drawn) gave a Cures of 0 and a Drug deaths of 0. Moreover, in the assay with Mus musculus [18], the Activity rating is on record as 2.8, the “Body weight loss at nadir” value was 3.7%, the “Log tumor cell kill” value is on record as 2.3 and the T/C amounted to 14.1%.
Regarding `CC(Oc1ccc(Oc2ccc3ccc(Cl)cc3n2)cc1)C(=O)O` (racemic), in [19], the Cures stood at 0 and the Drug deaths amounted to 0. Further, in [20], the Activity rating is over 2.8, the “Body weight loss at nadir” value was -10.6%, the “Log tumor cell kill” value is on record as 3.8 and the T/C was 0%. In the assay with Mus musculus [21], the Activity rating amounted to 2.8, the “Body weight loss at nadir” value is -8.9%, the “Log tumor cell kill” value is reported as 2.6 and the T/C turned out to be 0%. Moreover, in the assay with Mus musculus [22], the Cures came to 0 and the Drug deaths came to 0.
Turning to `CC(Oc1ccc(Oc2nc3ccc(Cl)cc3o2)cc1)C(=O)O` (racemic) [FENOXAPROP], in assay [23], the Cures came to 0 and the Drug deaths was found to be 0. Moreover, in [24], the Activity rating is on record as under 0.7, the “Body weight loss at nadir” value is recorded as 0% and the T/C is given as over 100%. Also, the “Log tumor cell kill” value with Mus musculus [25] was “inactive”.
In assay [26], `CC(Oc1ccc(Oc2ccc3ccc(Br)cc3n2)cc1)C(=O)O` (racemic) yielded a Cures of 0 and a Drug deaths of 0. In [27], the Activity rating was over 2.8, the “Body weight loss at nadir” value was -5.5%, the “Log tumor cell kill” value was 4.2 and the T/C was 0%.
In the assay on Mus musculus [17], `CC(Oc1ccc(Oc2cnc3ccc(Cl)cc3n2)cc1)C(=O)O` (stereo not drawn) yielded a Cures of 0 and a Drug deaths of 0. In the assay with Mus musculus [18], the Activity rating turned out to be 2.8, the “Body weight loss at nadir” value stood at 2.5%, the “Log tumor cell kill” value turned out to be 2 and the T/C came out at 24.5%.
